Results on 5 molecules are retold here after PMC8550792, “Evolution of kinase polypharmacology across HSP90 drug discovery” (Cell Chemical Biology, 2021).

Data set [1] deals with T1, 382 unique human kinases (Homo sapiens, UniProt P42345).
T1 construct: purchased Reaction Biology (HotSpot contract assay)
As to the kind of experiment: biochemical. The settings on record: mTOR/FRAP1; compound at 10 uM; duplicate values; read-out: % Enzyme Activity (relative to DMSO controls). Type of data set: biochemical.

The target of data set [2] is T2, 382 unique human kinases (Homo sapiens, UniProt P29323).
T2 construct: purchased Reaction Biology (HotSpot contract assay)
T2 sequence (P29323 19-1055): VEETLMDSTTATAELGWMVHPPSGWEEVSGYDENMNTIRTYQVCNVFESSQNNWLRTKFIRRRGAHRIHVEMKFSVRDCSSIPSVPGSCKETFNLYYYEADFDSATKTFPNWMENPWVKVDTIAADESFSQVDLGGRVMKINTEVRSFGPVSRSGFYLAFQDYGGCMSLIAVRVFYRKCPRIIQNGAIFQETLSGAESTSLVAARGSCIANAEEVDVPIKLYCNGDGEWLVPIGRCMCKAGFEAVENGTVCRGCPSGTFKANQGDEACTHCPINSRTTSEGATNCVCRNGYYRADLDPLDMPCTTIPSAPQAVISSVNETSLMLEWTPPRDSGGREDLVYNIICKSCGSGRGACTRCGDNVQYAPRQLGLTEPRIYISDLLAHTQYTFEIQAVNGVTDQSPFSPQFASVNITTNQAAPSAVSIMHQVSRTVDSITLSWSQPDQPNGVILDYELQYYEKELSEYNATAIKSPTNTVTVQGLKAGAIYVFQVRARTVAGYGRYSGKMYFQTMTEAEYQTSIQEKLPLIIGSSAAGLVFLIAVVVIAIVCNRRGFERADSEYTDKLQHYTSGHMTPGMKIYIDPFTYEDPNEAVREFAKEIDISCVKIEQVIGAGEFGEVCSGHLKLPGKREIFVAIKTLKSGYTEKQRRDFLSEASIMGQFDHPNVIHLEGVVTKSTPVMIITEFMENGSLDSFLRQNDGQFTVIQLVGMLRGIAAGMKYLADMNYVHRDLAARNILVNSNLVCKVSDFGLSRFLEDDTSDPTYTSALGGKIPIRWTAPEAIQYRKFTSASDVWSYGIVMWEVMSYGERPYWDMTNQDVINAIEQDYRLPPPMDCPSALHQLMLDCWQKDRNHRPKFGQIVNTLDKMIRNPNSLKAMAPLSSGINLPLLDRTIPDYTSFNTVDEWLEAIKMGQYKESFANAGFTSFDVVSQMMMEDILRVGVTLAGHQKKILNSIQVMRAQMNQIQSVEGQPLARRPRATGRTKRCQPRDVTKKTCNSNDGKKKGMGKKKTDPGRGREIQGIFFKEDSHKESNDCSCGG
Description: biochemical. Type of data set: biochemical. The settings on record: EPHB2, [ATP] 30 µM, compound 10 uM; for remaining activity at 10 µM: read-out: % Enzyme Activity (relative to DMSO controls).

Data set [3] deals with HSP90B1. Details: method as in ChEMBL23 (accessed: 23/08/2018). The settings on record: average of reported values; ref ChEMBL23 (accessed: 23/08/2018); cited from earlier work.
The conditions of data set [4]: human, in vivo; cited from earlier work.
For data set [5], the target named is ABL1 (Homo sapiens, UniProt P00519). As to the kind of experiment: NanoBRET intracellular target engagement.
Chain of ABL1 (P00519 whole entry): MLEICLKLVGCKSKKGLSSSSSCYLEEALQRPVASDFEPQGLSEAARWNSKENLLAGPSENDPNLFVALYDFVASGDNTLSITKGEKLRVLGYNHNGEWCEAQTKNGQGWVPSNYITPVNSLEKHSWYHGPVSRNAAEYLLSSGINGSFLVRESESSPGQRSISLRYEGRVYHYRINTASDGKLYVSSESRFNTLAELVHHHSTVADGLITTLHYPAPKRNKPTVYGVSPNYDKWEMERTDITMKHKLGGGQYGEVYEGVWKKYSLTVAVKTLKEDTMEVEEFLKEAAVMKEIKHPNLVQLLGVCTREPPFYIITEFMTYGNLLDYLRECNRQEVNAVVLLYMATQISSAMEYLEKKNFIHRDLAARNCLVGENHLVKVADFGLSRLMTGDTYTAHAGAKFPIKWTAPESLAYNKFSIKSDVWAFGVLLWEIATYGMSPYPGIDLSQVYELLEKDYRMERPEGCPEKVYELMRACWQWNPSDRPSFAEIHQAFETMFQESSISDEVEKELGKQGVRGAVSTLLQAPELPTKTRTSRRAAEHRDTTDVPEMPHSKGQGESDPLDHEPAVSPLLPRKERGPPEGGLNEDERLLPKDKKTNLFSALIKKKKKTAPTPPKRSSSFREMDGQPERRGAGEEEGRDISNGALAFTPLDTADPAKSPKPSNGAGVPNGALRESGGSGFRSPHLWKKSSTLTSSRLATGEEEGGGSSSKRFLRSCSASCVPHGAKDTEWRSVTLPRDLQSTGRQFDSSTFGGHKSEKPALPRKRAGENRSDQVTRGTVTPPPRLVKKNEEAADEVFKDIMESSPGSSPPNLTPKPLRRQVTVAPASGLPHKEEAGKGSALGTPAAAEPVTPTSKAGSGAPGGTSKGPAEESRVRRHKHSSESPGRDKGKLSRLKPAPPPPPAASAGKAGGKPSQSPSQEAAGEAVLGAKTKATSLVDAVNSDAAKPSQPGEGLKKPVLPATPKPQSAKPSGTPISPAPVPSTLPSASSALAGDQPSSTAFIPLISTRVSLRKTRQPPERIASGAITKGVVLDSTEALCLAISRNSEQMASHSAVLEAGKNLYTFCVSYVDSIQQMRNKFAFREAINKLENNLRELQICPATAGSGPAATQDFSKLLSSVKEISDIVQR
The target of data set [6] is ABL2 (Homo sapiens, UniProt P42684). Description: NanoBRET intracellular target engagement. A general note: BRET reads energy transfer from a luciferase to a nearby fluorophore.
Data set [7] has as its target DDR1 (Homo sapiens, UniProt Q08345). As to the kind of experiment: NanoBRET intracellular target engagement.
The target of data set [8] is T3, 382 unique human kinases (Homo sapiens, UniProt O14578).
T3 construct: purchased Reaction Biology (HotSpot contract assay)
Description: biochemical. Type of data set: biochemical. The conditions noted are these: STK21/CIT, 10 uM.

Data set [9] addresses T4, 382 unique human kinases (Homo sapiens, UniProt P04626, V777L).
T4 construct: purchased Reaction Biology (HotSpot contract assay)
As to the kind of experiment: biochemical. The settings on record: ERBB2 (V777L), compound at 10 uM, duplicate values. Type of data set: biochemical.

In data set [10] the target is T5, 382 unique human kinases (Homo sapiens, UniProt P15056, L597V).
T5 construct: purchased Reaction Biology (HotSpot contract assay)
T5 sequence (P15056 whole entry L597V): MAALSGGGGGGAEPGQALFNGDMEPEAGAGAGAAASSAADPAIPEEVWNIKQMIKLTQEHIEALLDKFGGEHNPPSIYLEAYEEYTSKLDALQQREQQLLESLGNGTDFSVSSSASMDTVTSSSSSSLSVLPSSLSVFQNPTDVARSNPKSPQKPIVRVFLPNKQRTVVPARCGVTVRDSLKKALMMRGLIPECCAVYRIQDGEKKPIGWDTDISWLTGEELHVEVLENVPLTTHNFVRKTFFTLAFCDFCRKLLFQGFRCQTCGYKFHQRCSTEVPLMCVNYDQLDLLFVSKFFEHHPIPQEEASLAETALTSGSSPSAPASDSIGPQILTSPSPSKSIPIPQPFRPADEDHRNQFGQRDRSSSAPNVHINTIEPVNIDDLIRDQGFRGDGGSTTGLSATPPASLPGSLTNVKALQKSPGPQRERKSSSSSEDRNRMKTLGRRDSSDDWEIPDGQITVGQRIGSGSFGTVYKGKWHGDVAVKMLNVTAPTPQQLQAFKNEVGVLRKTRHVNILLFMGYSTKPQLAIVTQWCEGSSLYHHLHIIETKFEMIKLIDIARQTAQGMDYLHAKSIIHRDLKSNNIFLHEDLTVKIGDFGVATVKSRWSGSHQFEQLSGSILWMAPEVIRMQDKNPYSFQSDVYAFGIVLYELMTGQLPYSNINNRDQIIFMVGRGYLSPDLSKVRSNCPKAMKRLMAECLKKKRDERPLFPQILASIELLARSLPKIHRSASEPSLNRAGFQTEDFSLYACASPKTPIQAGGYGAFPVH
As to the kind of experiment: biochemical. Type of data set: biochemical. The conditions noted are these: BRAF (L597V), compound at 10 uM, duplicate values.

The target in data set [11] is T6, 382 unique human kinases (Homo sapiens, UniProt P57078).
T6 construct: purchased Reaction Biology (HotSpot contract assay)
As to the kind of experiment: biochemical. The conditions noted are these: kinase RIPK4, compound 10 uM. The data set is classed as biochemical.

The target in data set [12] is T7, YES/YES1 (Homo sapiens, UniProt P07947).
T7 construct: purchased Reaction Biology (HotSpot contract assay)
T7 sequence (P07947 whole entry): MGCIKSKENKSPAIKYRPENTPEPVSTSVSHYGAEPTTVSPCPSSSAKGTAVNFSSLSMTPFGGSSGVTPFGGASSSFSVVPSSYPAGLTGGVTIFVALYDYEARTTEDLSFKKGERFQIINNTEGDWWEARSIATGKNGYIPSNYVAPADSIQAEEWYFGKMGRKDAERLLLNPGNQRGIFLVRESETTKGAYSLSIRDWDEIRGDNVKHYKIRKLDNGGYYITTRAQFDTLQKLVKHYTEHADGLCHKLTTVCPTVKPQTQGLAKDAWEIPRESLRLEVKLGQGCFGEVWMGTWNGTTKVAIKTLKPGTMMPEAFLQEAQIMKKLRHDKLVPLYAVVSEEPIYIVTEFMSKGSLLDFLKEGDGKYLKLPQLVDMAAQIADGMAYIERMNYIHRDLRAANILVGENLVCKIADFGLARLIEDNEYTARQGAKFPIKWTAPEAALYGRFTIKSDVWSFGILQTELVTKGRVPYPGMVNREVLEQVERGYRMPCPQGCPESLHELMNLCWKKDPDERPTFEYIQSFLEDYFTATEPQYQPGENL
Description: HotSpot in vitro kinase radiometric assay. Type of data set: biochemical. The settings on record: for inhibition at 10 µM: read-out: % inhibition at 10 uM: YES, Fig 6C median ± standard deviation (n = 2).

The target in data set [13] is T8, 382 unique human kinases (Homo sapiens, UniProt P00519, V299L).
T8 construct: purchased Reaction Biology (HotSpot contract assay)
T8 sequence (P00519 whole entry V299L): as the sequence (P00519 whole entry) above, with V299L counted along it
Description: biochemical. Type of data set: biochemical. The settings on record: ABL1 (V299L), [ATP] 5 µM, compound 10 uM.

Data set [14] concerns the target T9, 382 unique human kinases (Homo sapiens, UniProt P04626).
T9 construct: purchased Reaction Biology (HotSpot contract assay)
As to the kind of experiment: biochemical. The settings on record: ERBB2/HER2, 10 uM. The data set is classed as biochemical.

The target of data set [15] is T10, 382 unique human kinases (Homo sapiens, UniProt P04626, D769H).
T10 construct: purchased Reaction Biology (HotSpot contract assay)
As to the kind of experiment: biochemical. The data set is classed as biochemical. The settings on record: ERBB2 (D769H), 10 uM.

In data set [16] the target is T11, 382 unique human kinases (Homo sapiens, UniProt P04626, D769Y).
T11 construct: purchased Reaction Biology (HotSpot contract assay)
Description: biochemical. The conditions noted are these: ERBB2 (D769Y), 10 uM. The data set is classed as biochemical.

Data set [17] deals with T12, 382 unique human kinases (Homo sapiens, UniProt P15056, V600D).
T12 construct: purchased Reaction Biology (HotSpot contract assay)
T12 sequence (P15056 whole entry V600D): as the sequence (P15056 whole entry L597V) above, with V597L, V600D counted along it
Description: biochemical. The conditions noted are these: BRAF (V600D), 10 uM. The data set is classed as biochemical.

The target of data set [18] is T13, 382 unique human kinases (Homo sapiens, UniProt P17948).
T13 construct: purchased Reaction Biology (HotSpot contract assay)
T13 sequence (P17948 27-1338): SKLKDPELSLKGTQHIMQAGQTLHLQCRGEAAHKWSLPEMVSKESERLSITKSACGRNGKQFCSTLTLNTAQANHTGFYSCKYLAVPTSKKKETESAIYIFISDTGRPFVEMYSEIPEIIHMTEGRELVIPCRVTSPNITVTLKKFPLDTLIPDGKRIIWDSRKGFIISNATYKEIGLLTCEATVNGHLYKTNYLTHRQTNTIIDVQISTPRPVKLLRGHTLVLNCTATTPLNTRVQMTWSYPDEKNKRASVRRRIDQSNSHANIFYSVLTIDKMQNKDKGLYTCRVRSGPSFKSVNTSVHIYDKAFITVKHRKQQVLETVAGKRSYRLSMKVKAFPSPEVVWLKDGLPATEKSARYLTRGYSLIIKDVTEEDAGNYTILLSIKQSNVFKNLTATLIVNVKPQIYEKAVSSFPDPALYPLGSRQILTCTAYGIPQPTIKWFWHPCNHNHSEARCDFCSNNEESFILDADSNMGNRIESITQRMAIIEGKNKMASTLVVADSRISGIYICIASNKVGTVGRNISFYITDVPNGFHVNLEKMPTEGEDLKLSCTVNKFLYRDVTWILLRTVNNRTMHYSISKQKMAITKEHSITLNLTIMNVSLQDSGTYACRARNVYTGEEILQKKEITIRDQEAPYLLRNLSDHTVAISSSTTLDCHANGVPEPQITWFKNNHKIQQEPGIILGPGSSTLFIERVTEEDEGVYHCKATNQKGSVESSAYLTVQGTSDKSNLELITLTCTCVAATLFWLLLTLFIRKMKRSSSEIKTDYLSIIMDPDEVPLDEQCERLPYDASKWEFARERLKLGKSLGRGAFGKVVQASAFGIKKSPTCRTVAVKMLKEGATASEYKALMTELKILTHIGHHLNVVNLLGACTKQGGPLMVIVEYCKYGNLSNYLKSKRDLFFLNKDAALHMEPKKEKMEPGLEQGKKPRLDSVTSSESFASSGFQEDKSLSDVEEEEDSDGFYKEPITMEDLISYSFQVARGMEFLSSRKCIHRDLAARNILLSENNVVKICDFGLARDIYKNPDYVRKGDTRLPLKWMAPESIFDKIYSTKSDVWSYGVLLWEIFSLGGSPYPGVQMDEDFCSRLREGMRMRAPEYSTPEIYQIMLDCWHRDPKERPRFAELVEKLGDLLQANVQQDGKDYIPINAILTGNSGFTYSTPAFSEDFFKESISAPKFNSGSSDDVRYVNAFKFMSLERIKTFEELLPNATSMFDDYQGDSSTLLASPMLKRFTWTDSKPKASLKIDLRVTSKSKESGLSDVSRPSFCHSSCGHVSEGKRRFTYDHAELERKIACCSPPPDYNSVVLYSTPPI
As to the kind of experiment: biochemical. The data set is classed as biochemical. The settings on record: FLT1/VEGFR1, [ATP] 2.5 µM, compound 10 uM.

For data set [19], the target named is T14, 382 unique human kinases (Homo sapiens, UniProt Q9BWU1).
T14 construct: purchased Reaction Biology (HotSpot contract assay)
T14 sequence (Q9BWU1 whole entry): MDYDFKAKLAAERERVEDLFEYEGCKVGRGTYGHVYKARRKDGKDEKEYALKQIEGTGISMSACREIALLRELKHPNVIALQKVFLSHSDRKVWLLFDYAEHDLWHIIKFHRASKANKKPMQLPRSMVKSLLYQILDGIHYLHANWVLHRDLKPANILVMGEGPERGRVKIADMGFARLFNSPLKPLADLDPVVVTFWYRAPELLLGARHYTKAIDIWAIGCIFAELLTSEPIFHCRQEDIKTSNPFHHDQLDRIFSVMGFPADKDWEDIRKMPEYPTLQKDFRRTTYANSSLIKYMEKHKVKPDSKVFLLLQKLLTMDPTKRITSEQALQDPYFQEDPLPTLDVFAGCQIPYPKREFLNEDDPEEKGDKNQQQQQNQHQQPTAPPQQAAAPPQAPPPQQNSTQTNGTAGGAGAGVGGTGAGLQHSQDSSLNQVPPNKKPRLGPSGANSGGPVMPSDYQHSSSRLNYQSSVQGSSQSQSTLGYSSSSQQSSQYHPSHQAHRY
Description: biochemical. Type of data set: biochemical. The settings on record: CDK19/cyclin C, 10 uM.

Where [20] appears, read: read-out: % Enzyme Activity (relative to DMSO controls).

For the molecule `CC(C)c1cc(-c2n[nH]c(=O)n2-c2ccc3c(ccn3C)c2)c(O)cc1O` [Ganetespib (STA9090)], the remaining activity at 10 µM in [1] is 107%.
The term EC50 denotes the concentration needed to bring the measured effect to its halfway point. A high value points to lower potency in that assay. Take `CC(C)c1cc(-c2n[nH]c(=O)n2-c2ccc3c(ccn3C)c2)c(O)cc1O` [Ganetespib]: the remaining activity at 10 µM in data set [2] turned out to be 45.3%. Besides, the “pActivity, HSP90B1” value in [3] is 8. Also, the “Cmax,total” value in data set [4] was 6 to 12 µM. Further, the EC50 in data set [5] was determined as 82.9 µM; in [6], 21.1 µM; in [7], 75.5 µM. The remaining activity at 100 µM in data set [5] (HEK293, read-out: %Normalized Bret Response, ABL1 NanoBRET, HEK293, Drug Conc. 0.0001 M) worked out at 41.3%; in [6] (HEK293, read-out: %Normalized Bret Response, ABL2 NanoBRET, HEK293, Drug Conc. 0.0001 M) it was 22.6%; in data set [7] (HEK293, read-out: %Normalized Bret Response, DDR1 NanoBRET, HEK293, Drug Conc. 0.0001 M), 37.5%.
Regarding `CCNC(=O)c1noc(-c2cc(C(C)C)c(O)cc2O)c1-c1ccc(CN2CCOCC2)cc1` [Luminespib (AUY-922)], the “% Enzyme Activity (relative to DMSO controls)” value in [8] is on record as 76.27%; in [9], 104.18%; in data set [10], 104.65%; in [11], 85.29%. The remaining activity at 10 µM is 78.4% in data set [8] (setting [20]), 105% in [9] (setting [20]), 107% in data set [10] (setting [20]) and 87.2% in data set [11] (setting [20]).
By inhibition is commonly meant the drop in the measured response relative to a control, in per cent. In the case of `CCNC(=O)c1noc(-c2cc(C(C)C)c(O)cc2O)c1-c1ccc(CN2CCOCC2)cc1` [Luminespib], the inhibition at 10 µM in data set [12] is 49 ± 2%. Also, the “% Enzyme Activity (relative to DMSO controls)” value was found to be 31.43% in data set [13]; 97.41% in [14]; 99.65% in data set [15]; 99.76% in [16]; 98.35% in data set [17]; 90.88% in [18]. The results for the “% Enzyme Activity (relative to DMSO controls)” value in [2] and in data set [19] were 61.81% and 95.24%, respectively. Besides, the remaining activity at 10 µM in [13] (setting [20]) came out at 31.8%; in [14] (setting [20]) it was 98.2%; in data set [15] (setting [20]), 102%; in data set [16] (setting [20]), 100%; in data set [17] (setting [20]), 100%; in [18] (setting [20]), 91.3%. The figures for the remaining activity at 10 µM in data set [2] and in [19] (setting [20]) were 63.2% and 96.2%, respectively.
Consider `CCNC(=O)c1noc(-c2cc(Cl)c(O)cc2O)c1-c1ccc(OC)cc1` [VER-50589], for which the “% Enzyme Activity (relative to DMSO controls)” value in [12] (YES/YES1, 10uM, ATP 50 uM, Data 1, Data 2) worked out at 96.18%. For the same molecule, the remaining activity at 10 µM in data set [12] (YES/YES1, 10uM, ATP 50 uM, Data 1, Data 2, read-out: % Enzyme Activity (relative to DMSO controls)) was 102%. In addition, in data set [12], the inhibition at 10 µM is 1 ± 4%.
